Each structure is given as a SMILES string.

The experiment deals with C57BL/6 mice. The experiment is described as follows: animal or person. In kind it is in vivo. As to conditions: Mus musculus, sc, 0.5 h, s.c. administration, 30 min, 55° C. water, read-out: ED50 (mg/kg) at 30 min on C57BL/6 mice in Warm-water Tail-flick Test. On the technique in general: Hot-plate and tail-flick tests time the reaction to a heat stimulus.

For `CCn1nnn(CCN2CCC(CCc3ccccc3)(C3CCCO3)C2)c1=O` (stereo not drawn) [Compound 192, 1-ethyl-4-(2-(3-phenethyl-3-(tetrahydrofuran-2-yl)pyrrolidin-1-yl)ethyl)-1H-tetrazol-5(4H)-one], the ED50 was more than 10 mg/kg.
Turning to `c1ccc(CCC2(C3CCCO3)CCN(Cc3cccn3-c3cccnc3)C2)cc1` (stereo not drawn) [Compound 193, 3-(2-((3-phenethyl-3-(tetrahydrofuran-2-yl)pyrrolidin-1-yl)methyl)-1H-pyrrol-1-yl)pyridine], the ED50 is more than 10 mg/kg.
`c1ccc(CCC2(C3CCCO3)CCN(Cc3ccccc3-c3cccs3)C2)cc1` (stereo not drawn) [Compound 194, 3-phenethyl-3-(tetrahydrofuran-2-yl)-1-(2-(thiophen-2-yl)benzyl)pyrrolidine]: the ED50 is more than 10 mg/kg.
Turning to `c1ccc(CCC2(C3CCCO3)CCN(Cc3ccccc3-c3ccco3)C2)cc1` (stereo not drawn) [Compound 195, 1-(2-(furan-2-yl)benzyl)-3-phenethyl-3-(tetrahydrofuran-2-yl)pyrrolidine], the ED50 was more than 10 mg/kg.
For the molecule `Clc1ccccc1CN1CCC(CCc2ccccc2)(C2CCCO2)C1` (stereo not drawn) [Compound 196, 1-(2-chlorobenzyl)-3-phenethyl-3-(tetrahydrofuran-2-yl)pyrrolidine], the ED50 is more than 10 mg/kg.
On to `Cc1nc(CN2CCC(CCc3ccccc3)(C3CCCO3)C2)cs1` (stereo not drawn) [Compound 197, 2-methyl-4-((3-phenethyl-3-(tetrahydrofuran-2-yl)pyrrolidin-1-yl)methyl)thiazole], for which the ED50 is more than 10 mg/kg.
As to `Cn1cc(CN2CCC(CCc3ccccc3)(C3CCCO3)C2)cn1` (stereo not drawn) [Compound 198, 1-methyl-4-((3-phenethyl-3-(tetrahydrofuran-2-yl)pyrrolidin-1-yl)methyl)-1H-pyrazole], the ED50 was less than 10 mg/kg.
Regarding `Fc1ccc(-n2cccn2)c(CN2CCC(CCc3ccccc3)(C3CCCO3)C2)c1` (stereo not drawn) [Compound 199, 1-(4-fluoro-2-((3-phenethyl-3-(tetrahydrofuran-2-yl)pyrrolidin-1-yl)methyl)phenyl)-1H-pyrazole], the ED50 is more than 10 mg/kg.
Regarding `CC(=O)Nc1ccc(CN2CCC(CCc3ccccc3)(C3(C)CCCO3)C2)cc1` (stereo not drawn) [Compound 200, N-(4-((3-(2-methyltetrahydro-furan-2-yl)-3-phenethylpyrrolidin-1-yl)methyl)phenyl)acetamide], the ED50 is less than 10 mg/kg.
On to `CC(=O)Nc1ccc(CN2CCC(CCc3ccccc3)(C3OCC3(C)C)C2)cc1` (stereo not drawn) [Compound 201, N-(4-((3-(3,3-dimethyloxetan-2-yl)-3-phenethylpyrrolidin-1-yl)methyl)phenyl)acetamide], for which the ED50 is less than 10 mg/kg.
With `CC(=O)Nc1ccc(CN2CCC(CCc3ccccc3)(C3C=C(C)CO3)C2)cc1` (stereo not drawn) [Compound 202, N-(4-((3-(4-methyl-2,5-dihydrofuran-2-yl)-3-phenethylpyrrolidin-1-yl)methyl)phenyl)acetamide] the figure was less than 10 mg/kg; with `CC(=O)Nc1ccc(CN2CCC(CCc3ccccc3)(c3cc(C)co3)C2)cc1` (stereo not drawn) [Compound 203, N-(4-((3-(4-methylfuran-2-yl)-3-phenethylpyrrolidin-1-yl)methyl)phenyl)acetamide], more than 10 mg/kg; with `CCOC[C@@]1(CCc2ccccc2)CCN(Cc2ccc(NC(C)=O)cc2)C1` [Compound 204, (S)-N-(4-((3-(ethoxymethyl)-3-phenethylpyrrolidin-1-yl)methyl)phenyl)acetamide], more than 10 mg/kg.
Regarding `CCOC[C@]1(CCc2ccccc2)CCN(Cc2ccc(NC(C)=O)cc2)C1` [Compound 205, (R)-N-(4-((3-(ethoxymethyl)-3-phenethylpyrrolidin-1-yl)methyl)phenyl)acetamide], the ED50 was less than 10 mg/kg.
Regarding `CCOCC1(CCc2ccccc2)CCN(Cc2ccc(Nc3cnccn3)cc2)C1` (stereo not drawn) [Compound 206, N-(4-((3-(ethoxymethyl)-3-phenethylpyrrolidin-1-yl)methyl)phenyl)pyrazin-2-amine], the ED50 is more than 10 mg/kg.
Turning to `CCOCC1(CCc2ccccc2)CCN(Cc2ccc(Nc3ncccn3)cc2)C1` (stereo not drawn) [Compound 207, N-(4-((3-(ethoxymethyl)-3-phenethylpyrrolidin-1-yl)methyl)phenyl)pyri-midin-2-amine], the ED50 is more than 10 mg/kg.
For `CC(=O)Nc1ccc(CN2CCC(CCc3ccccc3)(C3CCCCO3)C2)cc1` (stereo not drawn) [Compound 208, N-(4-((3-phenethyl-3-(tetrahydro-2H-pyran-2-yl)pyrrolidin-1-yl)methyl)phenyl)acetamide], the ED50 was less than 10 mg/kg.
For `c1ccc(CCC2(C3CCCCO3)CCN(Cc3ccccc3-c3cccs3)C2)cc1` (stereo not drawn) [Compound 209, 3-phenethyl-3-(tetrahydro-2H-pyran-2-yl)-1-(2-(thiophen-2-yl)benzyl)pyrrolidine] the value was more than 10 mg/kg; for `Clc1ccccc1CN1CCC(CCc2ccccc2)(C2CCCCO2)C1` (stereo not drawn) [Compound 210, 1-(2-chlorobenzyl)-3-phenethyl-3-(tetrahydro-2H-pyran-2-yl)pyrrolidine], more than 10 mg/kg; for `Cc1nc(CN2CCC(CCc3ccccc3)(C3CCCCO3)C2)cs1` (stereo not drawn) [Compound 211, 2-methyl-4-((3-phenethyl-3-(tetrahydro-2H-pyran-2-yl)pyrrolidin-1-yl)methyl)thiazole], more than 10 mg/kg.
As to `c1ccc(CCC2(C3CCCO3)CCN(Cc3cn[nH]c3)C2)cc1` (stereo not drawn) [Compound 212, 4-((3-phenethyl-3-(tetrahydrofuran-2-yl)pyrrolidin-1-yl)methyl)-1H-pyrazole], the ED50 is more than 10 mg/kg.
`Cn1ccc(CN2CCC(CCc3ccccc3)(C3CCCO3)C2)n1` (stereo not drawn) [Compound 214, 1-methyl-3-((3-phenethyl-3-(tetrahydrofuran-2-yl)pyrrolidin-1-yl)methyl)-1H-pyrazole]: the ED50 was more than 10 mg/kg.
Take `Cn1nccc1CN1CCC(CCc2ccccc2)(C2CCCO2)C1` (stereo not drawn) [Compound 215, l-methyl-5-((3-phenethyl-3-(tetrahydrofuran-2-yl)pyrrolidin-1-yl)methyl)-1H-pyrazole]: the ED50 was less than 10 mg/kg.
As to `CC(=O)Nc1ccc(CN2CCC(CCc3ccccc3)(C3OCC=C3C)C2)cc1` (stereo not drawn) [Compound 216, N-(4-((3-(3-methyl-2,5-dihydrofuran-2-yl)-3-phenethylpyrrolidin-1-yl)methyl)phenyl)acetamide], the ED50 was less than 10 mg/kg.
Regarding `CCOCC1(CCc2ccccc2)CCN(Cc2cnn(C)c2)C1` (stereo not drawn) [Compound 217, 4-((3-(ethoxymethyl)-3-phenethylpyrrolidin-1-yl)methyl)-1-methyl-1H-pyrazole], the ED50 was less than 10 mg/kg.
Turning to `c1ccc(CCC2(C3CCCO3)CCN(Cc3cccc(-c4ccco4)c3)C2)cc1` (stereo not drawn) [Compound 219], the ED50 was more than 10 mg/kg.
Turning to `c1ccc(CCC2(C3CCCO3)CCN(Cc3ccc(-c4ccco4)cc3)C2)cc1` (stereo not drawn) [Compound 220], the ED50 is more than 10 mg/kg.
`Cn1cncc1CN1CCC(CCc2ccccc2)(C2CCCO2)C1` (stereo not drawn) [Compound 221, 1-methyl-5-((3-phenethyl-3-(tetrahydrofuran-2-yl)pyrrolidin-1-yl)methyl)-1H-imidazole]: the ED50 was more than 10 mg/kg.
Consider `Cn1ccnc1CN1CCC(CCc2ccccc2)(C2CCCO2)C1` (stereo not drawn) [Compound 222, l-methyl-2-((3-phenethyl-3-(tetrahydrofuran-2-yl)pyrrolidin-1-yl)methyl)-1H-imidazole], for which the ED50 is more than 10 mg/kg.
For `COc1ccsc1CN1CCC(CCc2ccccc2)(C2CCCO2)C1` (stereo not drawn) [Compound 223, 1-((3-methoxythiophen-2-yl)methyl)-3-phenethyl-3-(tetrahydrofuran-2-yl)pyrrolidine], the ED50 is more than 10 mg/kg.

Values taken from patent publication US11584765B2 (priority 2017, dated 2023).
